Measurements taken from ChEMBL document CHEMBL5120790, “Secondary Metabolites from Annulohypoxylon sp. and Structural Revision of Emericellins A and B” (2022).

Key:
Assay type in all cases: functional
[1] = tested on: Candida albicans; assay: Antifungal activity against Candida albicans assessed as reduction in microbial growth after 3 days by two-fold dilution method
[2] = tested on: Bacillus subtilis; assay: Antibacterial activity against Bacillus subtilis assessed as reduction in microbial growth after 24 hrs by two-fold dilution method
[3] = tested on: Staphylococcus aureus; assay: Antibacterial activity against Staphylococcus aureus assessed as reduction in microbial growth after 24 hrs by two-fold dilution method
[4] = tested on: Escherichia coli; assay: Antibacterial activity against Escherichia coli assessed as reduction in microbial growth after 24 hrs by two-fold dilution method

Compound	MIC ([1]; 72 h, time 3 day)	MIC [2]	MIC [3]	MIC [4]	MIC ([1]; time 3.0 day)
C[C@@]12CC[C@@](O)(CO)[C@@H](C1)[C@]1(C)CCC[C@]21C	> 256 µg/mL	32 µg/mL	64 µg/mL	64 µg/mL	–
C[C@]12CCC[C@@]1(C)[C@@H]1C[C@@]2(C)[C@H](O)C[C@@]1(O)CO	> 256 µg/mL	16 µg/mL	32 µg/mL	2 µg/mL	–
CC[C@H](O)[C@H](O)C[C@H](C)O	64 µg/mL	> 256 µg/mL	> 256 µg/mL	> 256 µg/mL	–
NC[C@H]1O[C@H](O[C@H]2[C@H](O)[C@@H](O[C@H]3O[C@H](CO)[C@@H](O)[C@H](N)[C@H]3O)[C@H](N)C[C@@H]2N)[C@H](O)[C@@H](O)[C@@H]1O [KANAMYCIN]	–	1 µg/mL	1 µg/mL	1 µg/mL	–
C[C@@]12CC[C@@](O)(CO)[C@@H](C1)[C@]1(C)C[C@@H](O)C[C@]21C	> 256 µg/mL	32 µg/mL	32 µg/mL	4 µg/mL	–
C/C=C/C[C@H](CO)[C@H](O)[C@H](C)O	64 µg/mL	> 256 µg/mL	> 256 µg/mL	> 256 µg/mL	–
COc1cc2c(c(O)c1OC)CO[C@](C)(O)C2=O	32 µg/mL	> 256 µg/mL	> 256 µg/mL	> 256 µg/mL	–
NYSTATIN	–	–	–	–	1 µg/mL
C[C@@]12CC[C@@](O)(CO)[C@@H](C1)[C@@]1(C)CCC[C@@]21C	> 256 µg/mL	64 µg/mL	64 µg/mL	64 µg/mL	–
C[C@H](C[C@@H](O)[C@H](O)C(C)(C)O)[C@H]1CC[C@@](C)(O)[C@@H](O)C1	> 256 µg/mL	64 µg/mL	64 µg/mL	64 µg/mL	–
C[C@@]12CC=C(CO)[C@@H](C1)[C@]1(C)CCC[C@]21C	> 256 µg/mL	32 µg/mL	32 µg/mL	64 µg/mL	–
